Data: US6906065B2, “4-Amino-5-cyano-2-anilino-pyrimidine derivatives and their use as inhibitors of cell-cycle kinases” (AstraZeneca AB, priority 2000, dated 2005)

Molecular target: T1, CDK2/Cyclin E (Homo sapiens, UniProt P24941)
T1 construct: The open reading frames of CDK2 and Cyclin E were isolated by reverse transcriptase-PCR; made in house; host or cells: Sf21 (Spodoptera frugiperda) insect cells, baculovirus co-infection, vector pVL1393
Assay: in vitro kinase assay (Scintillation Proximity Assay), incorporation of [γ-33-P]-ATP into GST-Rb
Assay type: biochemical
Details: CDK2/Cyclin E partially-purified enzyme, GST-Rb substrate, 0.2 μM ATP, 60 minutes at room temperature; read-out: CDK2 inhibitory activity IC50
Experimental: The compounds were tested in an in vitro kinase assay in 96 well format using Scintillation Proximity Assay (SPA—obtained from Amersham) for measuring incorporation of [γ-33-P]-Adenosine Triphosphate into a test substrate (GST-Retinoblastoma protein; GST-Rb). In each well was placed the compound to be tested (diluted in DMSO and water to correct concentrations) and in control wells either roscovitine as an inhibitor control or DMSO as a positive control. […]
The plates were sealed with Topseal-S plate sealers, left for two hours then spun at 2500 rpm, 1124×g., for 5 minutes. The plates were read on a Topcount for 30 seconds per well. […]
E.coli paste was resuspended in 10 ml/g of NETN buffer (50 mM Tris pH 7.5, 120 mM NaCl, 1 mM EDTA, 0.5% v/v NP-40, 1 mM PMSF, 1 ug/ml leupeptin, 1 ug/ml aprotinin and 1 ug/ml pepstatin) and sonicated for 2×45 seconds per 100 ml homogenate. […] The final product was analysed by Sodium Dodeca Sulfate (SDS) PAGE (Polyacrylamide gel) using 8-16% Tris-Glycine gels (Novex, San Diego, USA).
The open reading frames of CDK2 and Cyclin E were isolated by reverse transcriptase-PCR using HeLa cell and activated T cell mRNA as a template and cloned into the insect expression vector pVL1393 (obtained from Invitrogen 1995 catalogue number: V1392-20). […]

Row | Compound | IC50 [nM]
1 | N#Cc1cnc(Nc2ccc(S(=O)(=O)NC3CCC3)cc2)nc1N [Example 21, 4-Amino-5-cyano-2-{4-[N-(cyclobutyl)sulphamoyl]anilino}pyrimidine] | 33
2 | CCCNS(=O)(=O)c1ccc(Nc2ncc(C#N)c(N)n2)cc1 [Example 23, 4-Amino-5-cyano-2-[4-(N-propylsulphamoyl)anilino]pyrimidine] | 17
